# Measured values: patent US9695155B2, “Herbicidal substituted pyrimidinyloxy benzene compounds” (E. I. DU PONT DE NEMOURS AND COMPANY, priority 2013, dated 2017)
# Columns and labels:
# chamomile = test: Test D preemergence; type: in vivo, Matricaria inodora; conditions: Tripleurospermum inodorum, pre-emergence
# Summary of the method: (§1)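 Visual rating vs untreated controls, 0 = no effect, 100 = complete control, taken 7–21 d after treatment. Pre: silt loam soil. Post: potting medium, plants 2–18 cm, 1–4 leaf. Formulation: non-phytotoxic solvent mix + surfactant.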
# field violet = test: Test D preemergence; type: in vivo, Viola arvensis; conditions: Viola arvensis, pre-emergence
# Summary of the method: as §1
# bromegrass, downy [1] = test: Test D preemergence; type: in vivo, Bromus tectorum; conditions: Bromus tectorum, pre-emergence
# Summary of the method: as §1
# field poppy [2] = test: Test D preemergence; type: in vivo, Papaver rhoeas; conditions: Papaver rhoeas, pre-emergence, scale 0-100, read-out: Plant response rating, Field Poppy
# Summary of the method: as §1
# lambsquarters = test: Test D preemergence; type: in vivo, Chenopodium album; conditions: Chenopodium album, pre-emergence
# Summary of the method: as §1
# wild mustard = test: Test D postemergence; type: in vivo, Sinapis arvensis; conditions: Brassica, post-emergence
# Summary of the method: as §1
# cocklebur = test: Test E preemergence; type: in vivo, Xanthium strumarium; conditions: 62 g ai/ha, scale 0 to 100 (0 no effect, 100 complete control)
# Summary of the method: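 Compound in a non-phytotoxic solvent mixture with surfactant was applied preemergence to seeds in silt loam soil, or postemergence to plants 2 to 18 cm tall grown in peat-based potting medium. Plants were kept in a greenhouse for 14 to 21 days, then rated visually against untreated controls on a 0 (no effect) to 100 (complete control) scale.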
# field poppy [3] = test: Test D postemergence; type: in vivo, Papaver rhoeas; conditions: Papaver rhoeas, post-emergence
# Summary of the method: as §1
# bromegrass, downy [4] = test: Test D postemergence; type: in vivo, Bromus tectorum; conditions: Bromus tectorum, post-emergence, Postemergence, scale 0 to 100 (0 no effect, 100 complete control), read-out: Plant response rating, Bromegrass, Downy
# Summary of the method: as §1
# wild oat = test: Test D postemergence; type: in vivo, Avena fatua; conditions: Avena fatua, post-emergence
# Summary of the method: as §1
# winter wheat = test: Test D postemergence; type: in vivo, Triticum aestivum; conditions: Triticum aestivum, post-emergence
# Summary of the method: as §1
# spring wheat = test: Test D postemergence; type: in vivo, Triticum aestivum; conditions: Triticum aestivum, post-emergence
# Summary of the method: as §1
structure (smiles),measurement,setting,value
"FC(F)(F)c1cnn(-c2ccccc2Oc2ncc(Br)cn2)c1 [Compound 18, 5-bromo-2-[2-[4-(trifluoromethyl)-1H-pyrazol-1-yl]phenoxy]pyrimidine]",pest or weed control at 16 g/ha,"chamomile; 16 g ai/ha, scale 0 (no effect) to 100 (complete control), read-out: Plant response rating, Chamomile",5%
same,pest or weed control at 31 g/ha,"chamomile; 31 g ai/ha, scale 0-100, read-out: Plant response rating, Chamomile",5%
same,pest or weed control at 125 g/ha,"chamomile; 125 g ai/ha, scale 0-100, read-out: Plant response rating, Chamomile",50%
same,pest or weed control at 250 g/ha,"chamomile; 250 g ai/ha, scale 0-100, read-out: Plant response rating, Chamomile",55%
same,pest or weed control at 16 g/ha,"field violet; 16 g ai/ha, scale 0 (no effect) to 100 (complete control), read-out: Plant response rating, Field Violet",65%
same,pest or weed control at 31 g/ha,"field violet; 31 g ai/ha, scale 0-100, read-out: Plant response rating, Field Violet",70%
same,pest or weed control at 62 g/ha,"field violet; 62 g ai/ha, scale 0-100, read-out: Plant response rating, Field Violet",85%
same,pest or weed control at 125 g/ha,"field violet; 125 g ai/ha, scale 0-100, read-out: Plant response rating, Field Violet",85%
same,pest or weed control at 250 g/ha,"field violet; 250 g ai/ha, scale 0-100, read-out: Plant response rating, Field Violet",90%
same,pest or weed control at 16 g/ha,"bromegrass, downy [1]; 16 g ai/ha, scale 0 (no effect) to 100 (complete control), read-out: Plant response rating, Bromegrass, Downy",0%
same,pest or weed control at 31 g/ha,"bromegrass, downy [1]; 31 g ai/ha, scale 0-100, read-out: Plant response rating, Bromegrass, Downy",0%
same,pest or weed control at 62 g/ha,"bromegrass, downy [1]; 62 g ai/ha, scale 0-100, read-out: Plant response rating, Bromegrass, Downy",5%
same,pest or weed control at 125 g/ha,"bromegrass, downy [1]; 125 g ai/ha, scale 0-100, read-out: Plant response rating, Bromegrass, Downy",10%
same,pest or weed control at 250 g/ha,"bromegrass, downy [1]; 250 g ai/ha, scale 0-100, read-out: Plant response rating, Bromegrass, Downy",50%
same,pest or weed control at 31 g/ha,field poppy [2]; 31 g ai/ha,70%
same,pest or weed control at 62 g/ha,field poppy [2]; 62 g ai/ha,85%
same,pest or weed control at 125 g/ha,field poppy [2]; 125 g ai/ha,95%
same,pest or weed control at 250 g/ha,field poppy [2]; 250 g ai/ha,100%
same,pest or weed control at 16 g/ha,"lambsquarters; 16 g ai/ha, scale 0 (no effect) to 100 (complete control), read-out: Plant response rating, Lambsquarters",70%
same,pest or weed control at 31 g/ha,"lambsquarters; 31 g ai/ha, scale 0-100, read-out: Plant response rating, Lambsquarters",80%
same,pest or weed control at 62 g/ha,"lambsquarters; 62 g ai/ha, scale 0-100, read-out: Plant response rating, Lambsquarters",100%
same,pest or weed control at 125 g/ha,"lambsquarters; 125 g ai/ha, scale 0-100, read-out: Plant response rating, Lambsquarters",100%
same,pest or weed control at 250 g/ha,"lambsquarters; 250 g ai/ha, scale 0-100, read-out: Plant response rating, Lambsquarters",100%
same,pest or weed control at 16 g/ha,"wild mustard; 16 g ai/ha, scale 0-100, read-out: Plant response rating, Mustard, Wild",60%
same,pest or weed control at 31 g/ha,"wild mustard; 31 g ai/ha, scale 0 to 100 (0 no effect, 100 complete control), read-out: Plant response rating, Mustard, Wild",90%
same,pest or weed control at 62 g/ha,"wild mustard; 62 g ai/ha, scale 0 to 100 (0 no effect, 100 complete control), read-out: Plant response rating, Mustard, Wild",70%
same,pest or weed control at 125 g/ha,"wild mustard; 125 g ai/ha, scale 0 to 100 (0 no effect, 100 complete control), read-out: Plant response rating, Mustard, Wild",80%
same,pest or weed control at 250 g/ha,"wild mustard; 250 g ai/ha, scale 0 to 100 (0 no effect, 100 complete control), read-out: Plant response rating, Mustard, Wild",100%
same,Cocklebur plant response rating,cocklebur,0
same,pest or weed control at 16 g/ha,"field poppy [3]; 16 g ai/ha, scale 0-100, read-out: Plant response rating, Field Poppy",80%
same,pest or weed control at 31 g/ha,"field poppy [3]; 31 g ai/ha, scale 0 to 100 (0 no effect, 100 complete control), read-out: Plant response rating, Field Poppy",75%
same,pest or weed control at 62 g/ha,"field poppy [3]; 62 g ai/ha, scale 0 to 100 (0 no effect, 100 complete control), read-out: Plant response rating, Field Poppy",75%
same,pest or weed control at 125 g/ha,"field poppy [3]; 125 g ai/ha, scale 0 to 100 (0 no effect, 100 complete control), read-out: Plant response rating, Field Poppy",100%
same,pest or weed control at 250 g/ha,"field poppy [3]; 250 g ai/ha, scale 0 to 100 (0 no effect, 100 complete control), read-out: Plant response rating, Field Poppy",100%
same,pest or weed control at 16 g/ha,"bromegrass, downy [4]; 16 g ai/ha",15%
same,pest or weed control at 31 g/ha,"bromegrass, downy [4]; 31 g ai/ha",15%
same,pest or weed control at 62 g/ha,"bromegrass, downy [4]; 62 g ai/ha",15%
same,pest or weed control at 125 g/ha,"bromegrass, downy [4]; 125 g ai/ha",20%
same,pest or weed control at 250 g/ha,"bromegrass, downy [4]; 250 g ai/ha",15%
same,pest or weed control at 16 g/ha,"wild oat; 16 g ai/ha, scale 0-100, read-out: Plant response rating, Oat, Wild",10%
same,pest or weed control at 31 g/ha,"wild oat; 31 g ai/ha, scale 0 to 100 (0 no effect, 100 complete control), read-out: Plant response rating, Oat, Wild",10%
same,pest or weed control at 62 g/ha,"wild oat; 62 g ai/ha, scale 0 to 100 (0 no effect, 100 complete control), read-out: Plant response rating, Oat, Wild",15%
same,pest or weed control at 125 g/ha,"wild oat; 125 g ai/ha, scale 0 to 100 (0 no effect, 100 complete control), read-out: Plant response rating, Oat, Wild",20%
same,pest or weed control at 250 g/ha,"wild oat; 250 g ai/ha, scale 0 to 100 (0 no effect, 100 complete control), read-out: Plant response rating, Oat, Wild",25%
same,plant injury at 16 g/ha,"winter wheat; 16 g ai/ha, scale 0-100, read-out: Plant response rating, Wheat, Winter",5%
same,plant injury at 31 g/ha,"winter wheat; 31 g ai/ha, scale 0 to 100 (0 no effect, 100 complete control), read-out: Plant response rating, Wheat, Winter",5%
same,plant injury at 62 g/ha,"winter wheat; 62 g ai/ha, scale 0 to 100 (0 no effect, 100 complete control), read-out: Plant response rating, Wheat, Winter",10%
same,plant injury at 125 g/ha,"winter wheat; 125 g ai/ha, scale 0 to 100 (0 no effect, 100 complete control), read-out: Plant response rating, Wheat, Winter",15%
same,plant injury at 250 g/ha,"winter wheat; 250 g ai/ha, scale 0 to 100 (0 no effect, 100 complete control), read-out: Plant response rating, Wheat, Winter",20%
same,plant injury at 16 g/ha,"spring wheat; 16 g ai/ha, scale 0-100, read-out: Plant response rating, Wheat, Spring",10%
same,plant injury at 31 g/ha,"spring wheat; 31 g ai/ha, scale 0 to 100 (0 no effect, 100 complete control), read-out: Plant response rating, Wheat, Spring",10%
same,plant injury at 62 g/ha,"spring wheat; 62 g ai/ha, scale 0 to 100 (0 no effect, 100 complete control), read-out: Plant response rating, Wheat, Spring",15%
same,plant injury at 125 g/ha,"spring wheat; 125 g ai/ha, scale 0 to 100 (0 no effect, 100 complete control), read-out: Plant response rating, Wheat, Spring",20%
same,plant injury at 250 g/ha,"spring wheat; 250 g ai/ha, scale 0 to 100 (0 no effect, 100 complete control), read-out: Plant response rating, Wheat, Spring",25%
